Reference: patent US9073821B2, “Hydroxamic acid derivative” (priority 2010, dated 2015)

target: Pseudomonas aeruginosa LpxC enzyme (Pseudomonas aeruginosa (strain ATCC 15692 / DSM 22644 / CIP 104116 / JCM 14847 / LMG 12228 / 1C / PRS 101 / PAO1), UniProt P47205); test: biochemical; type: biochemical; details: class symbols A/B/C by IC50; Table 3; read-out: Enzyme inhibitory activity (inhibitory activity on Pseudomonas aeruginosa LpxC enzyme)

For `CNC(=O)C(C(=O)NO)N(C)C(=O)c1ccc(-c2ccc(-c3ccc(CO)o3)cc2)cc1` (centres unmarked) [Compound 499, N-hydroxy-2-[({4′-[5-(hydroxymethyl)furan-2-yl]biphenyl-4-yl}carbonyl)(methyl)amino]-N′-methylpropanediamide], the IC50 was < 10 nM.

same assay, conditions: inhibitory activity on Pseudomonas aeruginosa LpxC enzyme, class symbols A/B/C; read-out: Enzyme inhibitory activity

`CNC(=O)C(C(=O)NO)N(C)C(=O)c1ccc(C#Cc2csc(COC)c2)cc1` (centres unmarked) [Compound 436, N-hydroxy-2-[(4-{[5-(methoxymethyl)thiophen-3-yl]ethynyl}benzoyl)(methyl)amino]-N′-methylpropanediamide] and `CNC(=O)C(C(=O)NO)N(C)C(=O)c1ccc(C#Cc2ccoc2)cc1` (centres unmarked) [Compound 461, 2-[{[4-(furan-3-ylethynyl)phenyl]carbonyl}(methyl)amino]-N-hydroxy-N′-methylpropanediamide] fall in the same range of IC50: 10 to 100 nM for the first, 10 to 100 nM for the second.

`CNC(=O)C(NC(=O)c1ccc(C#Cc2ccc(CN3CCCOCC3)cc2)cc1)C(=O)NO` (centres unmarked) [Compound 117, N-hydroxy-N′-methyl-2-[(4-{[4-(1,4-oxazepan-4-ylmethyl)phenyl]ethynyl}benzoyl)amino]propanediamide] and `CNC(=O)[C@](C)(C(=O)NO)N(C)C(=O)c1ccc(C#Cc2ccc(CN3CCCOCC3)cc2)cc1` [Compound 377, (2R)-N-hydroxy-N′,2-dimethyl-2-{methyl[(4-{[4-(1,4-oxazepan-4-ylmethyl)phenyl]ethynyl}phenyl)carbonyl]amino}propanediamide] cannot be ordered by IC50: < 10 nM for the first, < 10 nM for the second.

`CC(C)NC(=O)C(NC(=O)c1ccc(-c2ccc(OCCO)cc2)cc1)C(=O)NO` (centres unmarked) [Compound 143, N-hydroxy-2-({[4′-(2-hydroxyethoxy)biphenyl-4-yl]carbonyl}amino)-N′-(propan-2-yl)propanediamide] and `CCCNC(=O)C(NC(=O)c1ccc(-c2ccc(OCCO)cc2)cc1)C(=O)NO` (centres unmarked) [Compound 142, N-hydroxy-2-({[4′-(2-hydroxyethoxy)biphenyl-4-yl]carbonyl}amino)-N′-propylpropanediamide] fall in the same range of IC50: 10 to 100 nM for the first, 10 to 100 nM for the second.

`O=C(NC(C(=O)NO)C(=O)NCCO)c1ccc(-c2ccc(OCCO)cc2)cc1` (centres unmarked) [Compound 122, N-hydroxy-2-({[4′-(2-hydroxyethoxy)biphenyl-4-yl]carbonyl}amino)-N′-(2-hydroxyethyl)propanediamide] and `CNC(=O)C(C(=O)NO)N(C)C(=O)c1ccc(-c2ccc(CNCC(F)F)cc2)cc1` (centres unmarked) [Compound 204, 2-{[(4′-{[(2,2-difluoroethyl)amino]methyl}biphenyl-4-yl)carbonyl](methyl)amino}-N-hydroxy-N′-methylpropanediamide] fall in the same range of IC50: 10 to 100 nM for the first, 10 to 100 nM for the second.

First: CNC(=O)C(C(=O)NO)N(C)C(=O)c1ccc(C#Cc2ccc(NCCO)cc2)cc1 (centres unmarked) [Compound 183, N-hydroxy-2-{[4-({4-[(2-hydroxyethyl)amino]phenyl}ethynyl)benzoyl](methyl)amino}-N′-methylpropanediamide]
Second: CNC(=O)C(C(=O)NO)N(C)C(=O)c1ccc(C#Cc2ccnc(C)c2)cc1 (centres unmarked) [Compound 464, N-hydroxy-N′-methyl-2-[methyl({4-[(2-methylpyridin-4-yl)ethynyl]phenyl}carbonyl)amino]propanediamide]
The IC50 of the first is lower: < 10 nM for the first, 10 to 100 nM for the second.

Compared with `CNC(=O)C(C(=O)NO)N(C)C(=O)c1ccc(-c2ccncc2)cc1` (centres unmarked) [Compound 169, N-hydroxy-N′-methyl-2-{methyl[4-(pyridin-4-yl)benzoyl]amino}propanediamide], `CNC(=O)C(C(=O)NO)N(C)C(=O)c1ccc(-c2ccc3c(c2)N(C)C(=O)CO3)cc1` (centres unmarked) [Compound 82, N-hydroxy-N′-methyl-2-{methyl[4-(4-methyl-3-oxo-3,4-dihydro-2H-1,4-benzoxazin-6-yl)benzoyl]amino}propanediamide] is lower in IC50: 10 to 100 nM for the first, < 10 nM for the second.

In the case of `CNC(=O)C(C(=O)NO)N(C)C(=O)c1ccc(-c2c(F)c(F)c(NC)c(F)c2F)cc1` (centres unmarked) [Compound 72, N-hydroxy-N′-methyl-2-(methyl {[2′,3′,5′,6′-tetrafluoro-4′-(methylamino)biphenyl-4-yl]carbonyl}amino)propanediamide], the IC50 is reported as < 10 nM.
